This assay concerns the target T1, human PDE9A2 (Homo sapiens, UniProt O76083).
T1 construct: made in house; host or cells: Sf9 insect cells (infected; crude lysate used as enzyme source)
The assay is described as follows: PDE9A2 enzymatic activity assay (scintillation proximity assay). The class given is biochemical. The note with it: for IC50: specific IC50 value is within the given range. The method, then:
The PDE9A2 enzymatic activity assay was run as scintillation proximity assay (SPA), in general according to the protocol of the manufacturer (Amersham Biosciences, product number: TRKQ 7100).
As enzyme source, lysate (PBS with 1% Triton X-100 supplemented with protease inhibitors, cell debris removed by centrifugation at 13.000 rpm for 30 min) of SF 9 cell expressing the human PDE9A2 was used. The total protein amount included in the assay varied upon infection and production efficacy of the SF9 cells and lay in the range of 0.1-100 ng.
In general, the assay conditions were as follows: • total assay volume: 40 microliter • protein amount: 0.1-50 ng • substrate concentration (cGMP): 20 nanomolar; ˜1 mCi/1 • incubation time: 60 min at room temperature • final DMSO concentration: 0.2-1
The assays were run in 384-well format. The test reagents as well as the enzyme and the substrate were diluted in assay buffer. The assay buffer contained 50 mM Tris, 8.3 mM MgCl2, 1.7 mM EGTA, 0.1% BSA, 0.05% Tween 20; the pH of assay buffer was adjusted to 7.5. The reaction was stopped by applying a PDE9 specific inhibitor (e.g. compounds according to WO04099210 or WO04099211) in excess.
The activity of the positive control (minus the negative control=background) is set to 100% and activity in the presence of test compound is expressed relative to these 100%. Within this setting, an inhibition above 100% might be possible due to the nature of the variation of the positive control within the assay. In the following inhibition of PDE 9A2 is presented for a concentration at 10 μM, if not indicated otherwise.
IC50 can be calculated with GraphPadPrism or other suited software setting the positive control as 100 and the negative control as 0. For calculation of IC50 dilutions of the test compounds (substrates) are to be selected and tested following the aforementioned protocol.
(In general: Scintillation proximity formats need no separation of bound from free tracer.)

[1] abbreviates: read-out: % Inhibition of PDE 9A2.

T1 sequence (O76083 1-533 isoform O76083-2): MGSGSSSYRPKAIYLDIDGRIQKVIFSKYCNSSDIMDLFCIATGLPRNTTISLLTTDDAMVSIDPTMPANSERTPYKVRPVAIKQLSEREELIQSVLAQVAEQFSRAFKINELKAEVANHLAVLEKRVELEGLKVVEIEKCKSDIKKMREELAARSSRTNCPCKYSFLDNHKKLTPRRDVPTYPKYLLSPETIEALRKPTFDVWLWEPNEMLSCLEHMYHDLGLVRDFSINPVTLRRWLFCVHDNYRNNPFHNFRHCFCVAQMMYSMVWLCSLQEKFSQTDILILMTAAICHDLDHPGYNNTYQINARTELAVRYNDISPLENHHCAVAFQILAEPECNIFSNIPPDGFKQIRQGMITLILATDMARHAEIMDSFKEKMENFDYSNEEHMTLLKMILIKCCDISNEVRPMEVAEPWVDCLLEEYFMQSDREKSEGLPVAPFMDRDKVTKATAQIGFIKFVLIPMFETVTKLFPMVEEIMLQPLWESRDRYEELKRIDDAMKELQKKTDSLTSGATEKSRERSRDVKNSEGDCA

As usually defined, the inhibition is the change of the read-out against control, counted positive when it falls. For orientation: IC50 means the concentration that inhibits the measured activity by half. `CCCc1nc2c(cnn2C2CCC(F)(F)CC2)c(=O)[nH]1` [Example 22] displayed an IC50 of 1 to 100 nM. The inhibition at 10 µM under setting [1] was 104%.

`O=c1[nH]c(CC2CCOC2)nc2c1cnn2C1CCC(F)(F)CC1` (centres unmarked) [Example 23]: the IC50 lay in the range of 101 to 1500 nM. Besides, the inhibition at 10 µM under setting [1] amounted to 100%.

On to `COc1ccc(Cc2nc3c(cnn3C3CCC(F)(F)CC3)c(=O)[nH]2)cc1` [Example 26], for which the IC50 is 1 to 100 nM. The inhibition at 10 µM under setting [1] was 100%.

For the compound `N#Cc1ccccc1Cc1nc2c(cnn2C2CCC(F)(F)CC2)c(=O)[nH]1` [Example 31], the IC50 lay within 1 to 100 nM. For the same compound, the inhibition at 10 µM under setting [1] turned out to be 99%.

In turn, `O=c1[nH]c(CCCC(F)(F)F)nc2c1cnn2C1CCC(F)(F)CC1` [Example 32] had an IC50 of 1 to 100 nM. In addition, the inhibition at 10 µM under setting [1] was 98%.

The compound `O=c1[nH]c(Cc2ccccc2Br)nc2c1cnn2C1CCC(F)(F)CC1` [Example 33] yielded an IC50 of 1 to 100 nM. In addition, the inhibition at 10 µM under setting [1] came out at 98%.

The compound `O=c1[nH]c(CC2CCC(F)(F)CC2)nc2c1cnn2C1CCC(F)(F)CC1` [Example 34] returned an IC50 of 101 to 1500 nM. For the same compound, under setting [1], the inhibition at 10 µM was determined as 96%.

The compound `Cc1cccnc1Cc1nc2c(cnn2C2CCC(F)(F)CC2)c(=O)[nH]1` [Example 35] showed an IC50 of 1 to 100 nM. In addition, the inhibition at 10 µM under setting [1] stood at 94%.

With `O=c1[nH]c(Cc2ccccc2I)nc2c1cnn2C1CCC(F)(F)CC1` [Example 36], the IC50 is 1 to 100 nM. The inhibition at 10 µM under setting [1] was 99%.

The compound `COc1cccc(Cl)c1Cc1nc2c(cnn2C2CCC(F)(F)CC2)c(=O)[nH]1` [Example 37] registered an IC50 of 1 to 100 nM. The inhibition at 10 µM under setting [1] came out at 97%.

In turn, `O=C(O)Cc1ccccc1Cc1nc2c(cnn2C2CCC(F)(F)CC2)c(=O)[nH]1` [Example 38] came in with an IC50 of 101 to 1500 nM. In addition, under setting [1], the inhibition at 10 µM amounted to 85%.

As to `CC(Cc1nc2c(cnn2C2CCC(F)(F)CC2)c(=O)[nH]1)C(=O)N1CCCCC1` (centres unmarked) [Example 39], the IC50 was 101 to 1500 nM. In addition, the inhibition at 10 µM under setting [1] came out at 84%.

`O=c1[nH]c(Cc2ccc(F)cc2Br)nc2c1cnn2C1CCC(F)(F)CC1` [Example 44]: the concentration for half-maximal inhibition (IC50) is 101 to 1500 nM. The inhibition at 10 µM under setting [1] came to 92%.

For the compound `O=c1[nH]c(Cc2cc(F)ccc2Br)nc2c1cnn2C1CCC(F)(F)CC1` [Example 45], the IC50 was in the range of 1 to 100 nM. The inhibition at 10 µM under setting [1] was 97%.

Regarding `O=c1[nH]c(Cc2ncccc2Br)nc2c1cnn2C1CCC(F)(F)CC1` [Example 46], the IC50 was 1 to 100 nM. The inhibition at 10 µM under setting [1] was 98%.

Consider `COc1ccccc1Cc1nc2c(cnn2C2CCC(F)(F)CC2)c(=O)[nH]1` [Example 48-3], for which the IC50 lay in the range of 1 to 100 nM. In addition, under setting [1], the inhibition at 10 µM is 95%.

Compound `COc1ccc(F)cc1Cc1nc2c(cnn2C2CCC(F)(F)CC2)c(=O)[nH]1` [Example 48-4] registered an IC50 of 1 to 100 nM. Besides, the inhibition at 10 µM under setting [1] was 99%.

In turn, `COc1cncc(-c2ccccc2Cc2nc3c(cnn3C3CCC(F)(F)CC3)c(=O)[nH]2)c1` [Example 53] showed an IC50 of 1 to 100 nM. Also, the inhibition at 10 µM under setting [1] is 100%.

Take `N#Cc1ccc(-c2ccccc2Cc2nc3c(cnn3C3CCC(F)(F)CC3)c(=O)[nH]2)cn1` [Example 54]: the IC50 was 1 to 100 nM. The inhibition at 10 µM under setting [1] amounted to 102%.

In turn, `COc1cc(-c2ccccc2Cc2nc3c(cnn3C3CCC(F)(F)CC3)c(=O)[nH]2)ccn1` [Example 55] showed an IC50 of 1 to 100 nM. The inhibition at 10 µM under setting [1] is 100%.

`COc1ccc(-c2ccccc2Cc2nc3c(cnn3C3CCC(F)(F)CC3)c(=O)[nH]2)cn1` [Example 56]: the IC50 is 1 to 100 nM. Besides, the inhibition at 10 µM under setting [1] was found to be 99%.

Take `N#Cc1ccc(-c2ccc(F)cc2Cc2nc3c(cnn3C3CCC(F)(F)CC3)c(=O)[nH]2)cn1` [Example 57]: the IC50 was in the range of 1 to 100 nM. For the same compound, under setting [1], the inhibition at 10 µM amounted to 101%.

As to `COc1cncc(-c2ccc(F)cc2Cc2nc3c(cnn3C3CCC(F)(F)CC3)c(=O)[nH]2)c1` [Example 58], the IC50 was in the range of 1 to 100 nM. In addition, the inhibition at 10 µM under setting [1] is 101%.

As for `COc1cc(-c2cc(F)ccc2Cc2nc3c(cnn3C3CCC(F)(F)CC3)c(=O)[nH]2)ccn1` [Example 59], the IC50 is 101 to 1500 nM. Moreover, the inhibition at 10 µM under setting [1] is 95%.

Turning to `NC(=O)c1ccc(-c2ccc(F)cc2Cc2nc3c(cnn3C3CCC(F)(F)CC3)c(=O)[nH]2)cn1` [Example 61], the IC50 lay within 1 to 100 nM. The inhibition at 10 µM under setting [1] was 99%.

`NC(=O)c1ccc(-c2cc(F)ccc2Cc2nc3c(cnn3C3CCC(F)(F)CC3)c(=O)[nH]2)cn1` [Example 62] registered an IC50 of 1 to 100 nM. Also, the inhibition at 10 µM under setting [1] was 100%.

Compound `N#Cc1ccc(-c2cc(F)ccc2Cc2nc3c(cnn3C3CCC(F)(F)CC3)c(=O)[nH]2)cn1` [Example 63] registered an IC50 of 101 to 1500 nM. Moreover, the inhibition at 10 µM under setting [1] stood at 93%.

In turn, `COc1cc(-c2ccc(F)cc2Cc2nc3c(cnn3C3CCC(F)(F)CC3)c(=O)[nH]2)ccn1` [Example 64] came in with an IC50 of 1 to 100 nM. Moreover, the inhibition at 10 µM under setting [1] came to 97%.

As to `COc1ccc(-c2ccc(F)cc2Cc2nc3c(cnn3C3CCC(F)(F)CC3)c(=O)[nH]2)cn1` [Example 65], the IC50 fell in the range of 1 to 100 nM. Besides, the inhibition at 10 µM under setting [1] came out at 101%.

Compound `O=c1[nH]c(Cc2cc(F)ccc2-c2cccnc2)nc2c1cnn2C1CCC(F)(F)CC1` [Example 66] registered an IC50 of 1 to 100 nM. Also, the inhibition at 10 µM under setting [1] was found to be 100%.

`COc1cncc(-c2cc(F)ccc2Cc2nc3c(cnn3C3CCC(F)(F)CC3)c(=O)[nH]2)c1` [Example 67] returned an IC50 of 1 to 100 nM. In addition, the inhibition at 10 µM under setting [1] was 99%.

With `COc1ccc(-c2cc(F)ccc2Cc2nc3c(cnn3C3CCC(F)(F)CC3)c(=O)[nH]2)cc1` [Example 68], the IC50 lay in the range of 101 to 1500 nM. In addition, the inhibition at 10 µM under setting [1] came to 96%.

For the compound `COc1ccc(-c2cc(F)ccc2Cc2nc3c(cnn3C3CCC(F)(F)CC3)c(=O)[nH]2)cn1` [Example 69], the IC50 lay in the range of 101 to 1500 nM. Further, under setting [1], the inhibition at 10 µM amounted to 97%.

In turn, `O=c1[nH]c(Cc2cc(F)ccc2-c2ccncc2)nc2c1cnn2C1CCC(F)(F)CC1` [Example 70] had an IC50 of 1 to 100 nM. Moreover, under setting [1], the inhibition at 10 µM was determined as 100%.

`O=c1[nH]c(Cc2ccc(F)cc2-c2cccnc2)nc2c1cnn2C1CCC(F)(F)CC1` [Example 71] came in with an IC50 of 1 to 100 nM. Also, the inhibition at 10 µM under setting [1] was 98%.

In the case of `Cn1nccc1-c1ccc(F)cc1Cc1nc2c(cnn2C2CCC(F)(F)CC2)c(=O)[nH]1` [Example 72-2], the IC50 was 1 to 100 nM. Also, under setting [1], the inhibition at 10 µM worked out at 98%.

Regarding `Cn1cc(-c2ccc(F)cc2Cc2nc3c(cnn3C3CCC(F)(F)CC3)c(=O)[nH]2)cn1` [Example 72-3], the IC50 lay in the range of 1 to 100 nM. Moreover, the inhibition at 10 µM under setting [1] is 98%.

Compound `O=c1[nH]c(Cc2cc(F)ccc2-c2ccnc(F)c2)nc2c1cnn2C1CCC(F)(F)CC1` [Example 72-4] registered an IC50 of 1 to 100 nM. In addition, the inhibition at 10 µM under setting [1] worked out at 101%.

Regarding `COc1ccc(-c2ccc(F)cc2Cc2nc3c(cnn3C3CCC(F)(F)CC3)c(=O)[nH]2)cc1` [Example 72-5], the IC50 lay within 1 to 100 nM. For the same compound, the inhibition at 10 µM under setting [1] came to 99%.

Consider `N#Cc1ccc(-c2ccc(F)cc2Cc2nc3c(cnn3C3CCC(F)(F)CC3)c(=O)[nH]2)cc1` [Example 72-6], for which the IC50 is 1 to 100 nM. In addition, for the setting “at 1 μM, read-out: % Inhibition of PDE 9A2”, the inhibition at 1 µM is 96%.

For the origin of these results see patent publication US9079905B2, “Compounds for the treatment of CNS disorders” (Boehringer Ingelheim International GmbH, priority 2008, dated 2015).
